In US20170326125A1, “MULTISUBSTITUTED AROMATIC COMPOUNDS AS INHIBITORS OF THROMBIN” (VERSEON CORPORATION, priority 2016, published 2017):

target: T1, Human thrombin (Homo sapiens, UniProt P00734); test: Inhibition of the protease activity of thrombin (chromogenic substrate S-2238); assay type: biochemical; conditions: Table C; 3 nM thrombin, 125 μM S-2238, 10 min pre-incubation, RT
T1 construct: purchased Haematologic Technologies Inc
Protocol: Compounds described herein can be assayed, by a variety of methods known in the art and described herein, for inhibition of biological activity, e.g., protease activity, of a variety of proteins, e.g., thrombin.
The thrombin activity reported herein (e.g., Table A) was obtained as follows. Human thrombin was obtained from Haematologic Technologies Inc. The chromogenic
Thrombin was assayed in buffer containing 0.05 M Tris (pH 7.4), 0.015 M NaCl and 0.01% PEG-8000. The final concentration of enzyme used was 3 nM thrombin. […] All assays were performed in 96-well microtiter plates at room temperature (RT). […] Inhibitor IC50 values were determined by adding test compound as ten point, three-fold serial dilutions in buffer solution, as known in the art. The plate was read at 10 minutes after substrate addition. The IC50 was calculated by plotting the percent (%) inhibition against compound concentration and fitting the data to a constrained four parameter sigmoidal curve, as known in the art.

IC50 [nM]	SMILES
100 to 1000	COc1ccc(CNc2nc(-c3cccnc3)nn2C(C)=O)cc1 [Cmpd 323, 1-(5-[(4-methoxyphenyl)methyl]amino-3-(pyridin-3-yl)-1H-1,2,4-triazol-1-yl)ethan-1-one]
100 to 1000	COc1ccc(CNc2nc(-c3ccco3)nn2C(=O)c2ccc(C)cc2)cc1 [Cmpd 371, 3-(furan-2-yl)-N-[(4-methoxyphenyl)methyl]-1-[(4-methylphenyl)carbonyl]-1H-1,2,4-triazol-5-amine]
< 100	CC(C)C(=O)n1nc(-c2cccnc2)nc1NCc1ccc(Cl)cc1 [Cmpd 306, 1-(5-[(4-chlorophenyl)methyl]amino-3-(pyridin-3-yl)-1H-1,2,4-triazol-1-yl)-2-methylpropan-1-one]
100 to 1000	COc1ccccc1CNc1nc(-c2ccco2)nn1C(=O)c1ccc(C)cc1 [Cmpd 370, 3-(furan-2-yl)-N-[(2-methoxyphenyl)methyl]-1-[(4-methylphenyl)carbonyl]-1H-1,2,4-triazol-5-amine]
< 100	COc1ccc(CNc2nc(-c3cccnc3)nn2C(=O)Cc2ccccc2)cc1 [Cmpd 319, 1-(5-[(4-methoxyphenyl)methyl]amino-3-(pyridin-3-yl)-1H-1,2,4-triazol-1-yl)-2-phenylethan-1-one]
< 100	CC(=O)n1nc(-c2cccnc2)nc1NCc1cccs1 [Cmpd 343, 1-[3-(pyridin-3-yl)-5-[(thiophen-2-ylmethyl)amino]-1H-1,2,4-triazol-1-yl]ethan-1-one]
> 1000	CCC(=O)n1nc(-c2ccc(F)cc2)nc1NCc1ccccc1 [Cmpd 345, 1-[5-(benzylamino)-3-(4-fluorophenyl)-1H-1,2,4-triazol-1-yl]propan-1-one]
< 100	CCC(=O)n1nc(-c2cccnc2)nc1NCc1ccccc1 [Cmpd 351, 1-[5-(benzylamino)-3-(pyridin-3-yl)-1H-1,2,4-triazol-1-yl]propan-1-one]

same assay, conditions: inhibition of the protease activity of thrombin

IC50 [nM]	SMILES
> 1000	Cc1ccccc1C(=O)n1nc(-c2ccccn2)cc1NCc1ccccc1 [Cmpd 260, N-benzyl-1-[(2-methylphenyl)carbonyl]-3-(pyridin-2-yl)-1H-pyrazol-5-amine]
100 to 1000	O=C(c1ccccc1Cl)n1nc(-c2ccccc2F)cc1NCc1ccccc1 [Cmpd 242, N-benzyl-1-[(2-chlorophenyl)carbonyl]-3-(2-fluorophenyl)-1H-pyrazol-5-amine]
> 1000	CC(C)(C)OC(=O)Nc1ccccc1C(=O)n1nc(-c2ccccn2)nc1NCc1ccccc1 [Cmpd 301, tert-butyl N-(2-[5-(benzylamino)-3-(pyridin-2-yl)-1H-1,2,4-triazol-1-yl]carbonylphenyl)carbamate]
> 1000	O=C(Nc1ccccc1Cl)n1nc(-c2cccnc2)nc1NCc1ccc(F)cc1 [Cmpd 200, N-(2-chlorophenyl)-5-[(4-fluorophenyl)methyl]amino-3-(pyridin-3-yl)-1H-1,2,4-triazole-1-carboxamide]

same assay, conditions: inhibition of the protease activity of thrombin; class symbols a/b/c

IC50 [nM]	SMILES
> 1000	CCC(O)c1cc(-c2ccccn2)nn1CCc1ccc(F)cc1 (stereo not drawn) [Cmpd 55]
< 100	Nc1ccccc1C(=O)n1nc(-c2ccccn2)nc1NCc1ccccc1 [Cmpd 109, 1-[(2-aminophenyl)carbonyl]-N-benzyl-3-(pyridin-2-yl)-1H-1,2,4-triazol-5-amine]
100 to 1000	COc1ccccc1C(=O)n1nc(-c2ccccn2)cc1NCc1ccsc1 [Cmpd 118, 1-[(2-methoxyphenyl)carbonyl]-3-(pyridin-2-yl)-N-(thiophen-3-ylmethyl)-1H-pyrazol-5-amine]
< 100	O=C(CCc1ccccc1)n1nc(-c2ccncc2)nc1NCc1ccc(F)cc1 [Cmpd 79, 1-(5-[(4-fluorophenyl)methyl]amino-3-(pyridin-4-yl)-1H-1,2,4-triazol-1-yl)-3-phenylpropan-1-one]
< 100	CCCC(=O)n1nc(-c2ccccn2)nc1NCc1ccccc1 [Cmpd 141, 1-[5-(benzylamino)-3-(pyridin-2-yl)-1H-1,2,4-triazol-1-yl]butan-1-one]
> 1000	CC(=O)c1cn(-c2ccccc2)nc1NCc1ccc(F)cc1 [Cmpd 61, 1-(3-[(4-fluorophenyl)methyl]amino-1-phenyl-1H-pyrazol-4-yl)ethan-1-one]
